Here are results for 6 compounds from ChEMBL document CHEMBL1139699, “Solid-phase synthesis and antibacterial activity of hydroxycinnamic acid amides and analogues against methicillin-resistant Staphylococcus aureus and vancomycin-resistant S. aureus” (Bioorg Med Chem Lett, 2006).

Each structure is given as a SMILES string. Converted amounts (≈) assume the structure as drawn. The source made the active and inactive calls. No cut-off for these calls is given here.

As a reminder, the IC50 is the concentration at which inhibition is half-maximal.

The subject of experiment [1] is Staphylococcus aureus. Briefly: Antibacterial activity against methicillin-resistant Staphylococcus aureus 20635. Type of experiment: functional.
In experiment [2] the test system is Staphylococcus aureus. Briefly: Antibacterial activity against methicillin-resistant Staphylococcus aureus 20636. The format is functional.
For experiment [3], the system named is Staphylococcus aureus. Briefly: Antibacterial activity against methicillin-resistant Staphylococcus aureus 20633. Type of experiment: functional.
Experiment [4] has as its system Staphylococcus aureus. As to the kind of experiment: Antibacterial activity against vancomycin-resistant Staphylococcus aureus 20624. The format is functional.
Experiment [5] relates to Staphylococcus aureus. As to the kind of experiment: Antibacterial activity against methicillin-resistant Staphylococcus aureus 20631. The format is functional.
Experiment [6] relates to Staphylococcus aureus. As to the kind of experiment: Antibacterial activity against methicillin-resistant Staphylococcus aureus 20653. The format is functional.
Experiment [7] relates to Staphylococcus aureus. Briefly: Antibacterial activity against vancomycin-resistant Staphylococcus aureus 20623. The format is functional.
Experiment [8] relates to Staphylococcus aureus. Briefly: Antibacterial activity against vancomycin-resistant Staphylococcus aureus 20622. Type of experiment: functional.
Experiment [9] concerns Staphylococcus aureus. As to the kind of experiment: Antibacterial activity against vancomycin-resistant Staphylococcus aureus 21083. The format is functional.
Experiment [10] is described as follows: Cytotoxicity against human gingival cells. Type of experiment: cell-based.
Experiment [11] has as its system Staphylococcus aureus. Briefly: Antibacterial activity against methicillin-resistant Staphylococcus aureus 20654. Type of experiment: functional.
Experiment [12] deals with Staphylococcus aureus. Briefly: Antibacterial activity against methicillin-resistant Staphylococcus aureus 20630. Type of experiment: functional.
Experiment [13] has as its system Staphylococcus aureus. As to the kind of experiment: Antibacterial activity against methicillin-resistant Staphylococcus aureus 20628. The format is functional.
The subject of experiment [14] is Staphylococcus aureus. Briefly: Antibacterial activity against methicillin-resistant Staphylococcus aureus. Type of experiment: functional.
The test system of experiment [15] is Staphylococcus aureus. As to the kind of experiment: Antibacterial activity against methicillin-resistant Staphylococcus aureus 20652 at 100 ug/ml. Type of experiment: functional, organism-based.
Experiment [16] concerns Staphylococcus aureus. As to the kind of experiment: Antibacterial activity against methicillin-resistant Staphylococcus aureus 20632. Type of experiment: functional.
For experiment [17], the system named is Staphylococcus aureus. Briefly: Antibacterial activity against methicillin-resistant Staphylococcus aureus 20652 at 50 ug/ml. The format is functional, organism-based.
Experiment [18] has as its system Staphylococcus aureus. As to the kind of experiment: microbe, parasite or virus in culture. Conditions: 20652.
The subject of experiment [19] is Staphylococcus aureus. As to the kind of experiment: Antibacterial activity against vancomycin-resistant Staphylococcus aureus 20624 at 256 ug/ml. Type of experiment: functional, organism-based.
Experiment [20] concerns Staphylococcus aureus. Briefly: Antibacterial activity against vancomycin-resistant Staphylococcus aureus 20623 at 256 ug/ml. The format is functional, organism-based.
The subject of experiment [21] is Staphylococcus aureus. Briefly: Antibacterial activity against vancomycin-resistant Staphylococcus aureus 20622 at 256 ug/ml. The format is functional, organism-based.
Experiment [22] has as its system Staphylococcus aureus. As to the kind of experiment: Antibacterial activity against vancomycin-resistant Staphylococcus aureus 21083 at 256 ug/ml. Type of experiment: functional, organism-based.
The test system of experiment [23] is Staphylococcus aureus. Briefly: Antibacterial activity against methicillin-resistant Staphylococcus aureus 20652 at 25 ug/ml. Type of experiment: functional, organism-based.
In experiment [24] the test system is Staphylococcus aureus. Briefly: Antibacterial activity against methicillin-resistant Staphylococcus aureus 20633 at 25 ug/ml. Type of experiment: functional, organism-based.
Experiment [25] concerns Staphylococcus aureus. As to the kind of experiment: Antibacterial activity against methicillin-resistant Staphylococcus aureus 20653 at 25 ug/ml. Type of experiment: functional, organism-based.
The test system of experiment [26] is Staphylococcus aureus. Briefly: Antibacterial activity against methicillin-resistant Staphylococcus aureus 20636 at 25 ug/ml. The format is functional, organism-based.
Experiment [27] has as its system Staphylococcus aureus. As to the kind of experiment: Antibacterial activity against methicillin-resistant Staphylococcus aureus 20654 at 25 ug/ml. The format is functional, organism-based.
For experiment [28], the system named is Staphylococcus aureus. As to the kind of experiment: Antibacterial activity against methicillin-resistant Staphylococcus aureus 20628 at 25 ug/ml. The format is functional, organism-based.
The test system of experiment [29] is Staphylococcus aureus. As to the kind of experiment: Antibacterial activity against methicillin-resistant Staphylococcus aureus 20628 at 256 ug/ml. Type of experiment: functional, organism-based.
The subject of experiment [30] is Staphylococcus aureus. Briefly: Antibacterial activity against methicillin-resistant Staphylococcus aureus 20633 at 256 ug/ml. The format is functional, organism-based.
Experiment [31] has as its system Staphylococcus aureus. As to the kind of experiment: Antibacterial activity against methicillin-resistant Staphylococcus aureus 20635 at 256 ug/ml. Type of experiment: functional, organism-based.
For experiment [32], the system named is Staphylococcus aureus. As to the kind of experiment: Antibacterial activity against methicillin-resistant Staphylococcus aureus at 256 ug/ml. Type of experiment: functional, organism-based.
Experiment [33] deals with Staphylococcus aureus. As to the kind of experiment: Antibacterial activity against methicillin-resistant Staphylococcus aureus 20654 at 256 ug/ml. The format is functional, organism-based.
Experiment [34] deals with Staphylococcus aureus. Briefly: Antibacterial activity against methicillin-resistant Staphylococcus aureus 20632 at 256 ug/ml. The format is functional, organism-based.
Experiment [35] has as its system Staphylococcus aureus. Briefly: Antibacterial activity against methicillin-resistant Staphylococcus aureus 20630 at 256 ug/ml. Type of experiment: functional, organism-based.
In experiment [36] the test system is Staphylococcus aureus. Briefly: Antibacterial activity against methicillin-resistant Staphylococcus aureus 20631 at 256 ug/ml. The format is functional, organism-based.
Experiment [37] relates to Staphylococcus aureus. Briefly: Antibacterial activity against methicillin-resistant Staphylococcus aureus 20636 at 256 ug/ml. The format is functional, organism-based.
The subject of experiment [38] is Staphylococcus aureus. As to the kind of experiment: Antibacterial activity against methicillin-resistant Staphylococcus aureus 20652 at 256 ug/ml. The format is functional, organism-based.
The test system of experiment [39] is Staphylococcus aureus. As to the kind of experiment: Antibacterial activity against methicillin-resistant Staphylococcus aureus 20653 at 256 ug/ml. Type of experiment: functional, organism-based.

As for `NCCCCCCNC(=O)/C=C/c1ccc(O)c(O)c1`, the MIC against Staphylococcus aureus [1] was determined as 25 µg/mL (≈ 89.8 µM); in the experiment on Staphylococcus aureus [2] it was 50 µg/mL (≈ 180 µM); in the experiment on Staphylococcus aureus [3], 50 µg/mL (≈ 180 µM); with Staphylococcus aureus [4], 50 µg/mL (≈ 180 µM); against Staphylococcus aureus [5], 50 µg/mL (≈ 180 µM); with Staphylococcus aureus [6], 25 µg/mL (≈ 89.8 µM). Moreover, the MIC against Staphylococcus aureus [7] amounted to 50 µg/mL (≈ 180 µM); with Staphylococcus aureus [8], 100 µg/mL (≈ 359 µM); against Staphylococcus aureus [9], 25 µg/mL (≈ 89.8 µM); against Staphylococcus aureus [11] it was 25 µg/mL (≈ 89.8 µM); against Staphylococcus aureus [12] it was 50 µg/mL (≈ 180 µM); in the experiment on Staphylococcus aureus [13], 50 µg/mL (≈ 180 µM). For the same compound, the figures for the MIC with Staphylococcus aureus [14] and in the experiment on Staphylococcus aureus [16] were 100 µg/mL (≈ 359 µM) and 50 µg/mL (≈ 180 µM), respectively. The same compound displayed an IC50 in [10] above 100 µg/mL. Besides, the outcome in the experiment with Staphylococcus aureus [15] was inactive.

As for `NCCCNC(=O)CCc1ccc(O)c(O)c1`, the MIC is 25 µg/mL (≈ 105 µM) in the experiment on Staphylococcus aureus [1]; 25 µg/mL (≈ 105 µM) against Staphylococcus aureus [2]; 50 µg/mL (≈ 210 µM) against Staphylococcus aureus [3]; 50 µg/mL (≈ 210 µM) against Staphylococcus aureus [4]; 50 µg/mL (≈ 210 µM) against Staphylococcus aureus [5]; 25 µg/mL (≈ 105 µM) in the experiment with Staphylococcus aureus [6]. The MIC against Staphylococcus aureus [7] was 50 µg/mL (≈ 210 µM); in the experiment on Staphylococcus aureus [8] it was 100 µg/mL (≈ 420 µM); in the experiment on Staphylococcus aureus [9], 25 µg/mL (≈ 105 µM); against Staphylococcus aureus [11], 50 µg/mL (≈ 210 µM); in the experiment with Staphylococcus aureus [12] it was 50 µg/mL (≈ 210 µM); in the experiment with Staphylococcus aureus [13], 50 µg/mL (≈ 210 µM). In addition, the MIC with Staphylococcus aureus [14] and with Staphylococcus aureus [16] was 50 µg/mL (≈ 210 µM) throughout. Also, the outcome in the experiment on Staphylococcus aureus [17] was inactive. In experiment [10], this compound had an IC50 above 100 µg/mL.

Turning to `CN[C@H](CC(C)C)C(=O)N[C@H]1C(=O)N[C@@H](CC(N)=O)C(=O)N[C@H]2C(=O)N[C@H]3C(=O)N[C@H](C(=O)N[C@H](C(=O)O)c4cc(O)cc(O)c4-c4cc3ccc4O)[C@H](O)c3ccc(c(Cl)c3)Oc3cc2cc(c3O[C@@H]2O[C@H](CO)[C@@H](O)[C@H](O)[C@H]2O[C@H]2C[C@](C)(N)[C@H](O)[C@H](C)O2)Oc2ccc(cc2Cl)[C@H]1O` [VANCOMYCIN], the MIC with Staphylococcus aureus [1] was determined as 8 µg/mL (≈ 5.52 µM); in the experiment with Staphylococcus aureus [2], 1.5 µg/mL (≈ 1.04 µM); against Staphylococcus aureus [5], 48 µg/mL (≈ 33.1 µM); in the experiment on Staphylococcus aureus [18], 0.25 µg/mL (≈ 0.173 µM); in the experiment with Staphylococcus aureus [11] it was 1.5 µg/mL (≈ 1.04 µM); against Staphylococcus aureus [12], 1.5 µg/mL (≈ 1.04 µM). This compound also displayed an MIC against Staphylococcus aureus [16] of 3 µg/mL (≈ 2.07 µM). The outcome with Staphylococcus aureus [19], in the experiment on Staphylococcus aureus [20], in the experiment on Staphylococcus aureus [21] and with Staphylococcus aureus [22] was inactive.

For `NCCCCCNC(=O)CCc1ccc(O)c(O)c1`, the MIC with Staphylococcus aureus [1] was 25 µg/mL (≈ 93.9 µM); with Staphylococcus aureus [4], 50 µg/mL (≈ 188 µM); with Staphylococcus aureus [5], 50 µg/mL (≈ 188 µM); in the experiment with Staphylococcus aureus [7], 25 µg/mL (≈ 93.9 µM); in the experiment with Staphylococcus aureus [8], 50 µg/mL (≈ 188 µM); in the experiment with Staphylococcus aureus [9], 25 µg/mL (≈ 93.9 µM). The MIC against Staphylococcus aureus [12], in the experiment with Staphylococcus aureus [14] and against Staphylococcus aureus [16] was 50 µg/mL (≈ 188 µM) each time. In addition, the result with Staphylococcus aureus [23], in the experiment with Staphylococcus aureus [24], with Staphylococcus aureus [25], in the experiment with Staphylococcus aureus [26], in the experiment on Staphylococcus aureus [27] and with Staphylococcus aureus [28] was inactive. This compound also came in with a half-maximal inhibitory concentration (IC50) in experiment [10] above 100 µg/mL.

Regarding `NCCCCNC(=O)CCc1ccc(O)c(O)c1`, the MIC against Staphylococcus aureus [1] amounted to 12.5 µg/mL (≈ 49.5 µM); with Staphylococcus aureus [2], 25 µg/mL (≈ 99.1 µM); in the experiment on Staphylococcus aureus [3], 25 µg/mL (≈ 99.1 µM); against Staphylococcus aureus [4], 25 µg/mL (≈ 99.1 µM); in the experiment with Staphylococcus aureus [5], 25 µg/mL (≈ 99.1 µM); in the experiment on Staphylococcus aureus [6] it was 25 µg/mL (≈ 99.1 µM). For the same compound, the MIC in the experiment with Staphylococcus aureus [7] is 25 µg/mL (≈ 99.1 µM); with Staphylococcus aureus [8], 100 µg/mL (≈ 396 µM); in the experiment on Staphylococcus aureus [9] it was 25 µg/mL (≈ 99.1 µM); in the experiment on Staphylococcus aureus [11], 25 µg/mL (≈ 99.1 µM); against Staphylococcus aureus [12], 50 µg/mL (≈ 198 µM); with Staphylococcus aureus [13] it was 50 µg/mL (≈ 198 µM). Also, the MIC in the experiment on Staphylococcus aureus [14] and in the experiment with Staphylococcus aureus [16] was 25 µg/mL (≈ 99.1 µM) throughout. Moreover, the result with Staphylococcus aureus [17] was inactive. In experiment [10], this compound had an IC50 above 100 µg/mL.

On to `Cc1onc(-c2ccccc2)c1C(=O)N[C@@H]1C(=O)N2[C@@H]1SC(C)(C)[C@@H]2C(=O)O`, for which the result in the experiment with Staphylococcus aureus [29], in the experiment with Staphylococcus aureus [30], in the experiment with Staphylococcus aureus [31], in the experiment on Staphylococcus aureus [32], in the experiment on Staphylococcus aureus [19] and in the experiment on Staphylococcus aureus [33] was inactive. The result with Staphylococcus aureus [34], in the experiment with Staphylococcus aureus [35], in the experiment on Staphylococcus aureus [20], in the experiment with Staphylococcus aureus [21], in the experiment on Staphylococcus aureus [22] and in the experiment on Staphylococcus aureus [36] was inactive. The result in the experiment with Staphylococcus aureus [37], with Staphylococcus aureus [38] and with Staphylococcus aureus [39] was inactive.
